The record followed here is US20230107642A1 (Erasca, Inc., priority 2020, published 2023).

Each structure is given as a SMILES string.

For one assay, the target named is T1, Cys12 of the KRAS 4B G12C protein (Homo sapiens, UniProt P01116, G12C).
T1 construct: This protein contained 188 amino acids in total, including an N-terminal 6-Histidine tag; made in house; host or cells: E. coli BL21
The assay can be described thus: In vitro covalent adduct formation (CAF) assay, LC-MS intact mass. Particulars: 10 uM compound, 60 min. It counts as binding. On the procedure:
This Example provides a protocol for assessing covalent adduct formation (CAF) between the compounds of the present application and KRAS.
In vitro covalent adduct formation assay: Covalent adduct formation (CAF) reactions between Cys12 of the KRAS 4B G12C protein and some of the compounds of Tables 1 to 4 were measured in vitro using liquid chromatography-mass spectrometry (LC-MS).
Recombinant Human KRAS 4B protein containing the G12C mutation was used in compound screening experiments. This protein contained 188 amino acids in total, including an N-terminal 6-Histidine tag, followed by a Tobacco Etch Virus (TEV) tag, followed by residues 1-169 of the native KRAS 4B sequence. The exact mass of the protein was 21,310 Da as determined by mass spectrometry. The full amino acid sequence is shown below: […]
The recombinant protein was expressed in E. coli BL21 cells and purified using affinity chromatography via a Ni-NTA column. Protein stocks were nucleotide-exchanged to >95% GDP, concentrated to 4 mg/mL, and stored at −80° C. in storage buffer (50 mM HEPES pH 7.4, 50 mM NaCl, 5 mM MgCl2, 1 mM DTT). Pure KRAS 4B G12C protein was diluted to a concentration of 5 μM in Tris Buffered Saline, pH 7.4. The compounds were dissolved in DMSO and added to the diluted protein to make a 10 μM concentration. The total DMSO concentration in the reaction was 4%. The reaction was mixed by pipetting and incubated at 22° C. for one hour. Aliquots of the reaction were taken over time and diluted 2:1 in 0.1% formic acid. The intact mass of the protein samples was measured by LC-MS using a QExactive+ mass spectrometer (Thermo Scientific). An amount of 500 ng total protein was injected onto a C8 reverse phase column, eluted with a seven-minute gradient of 30%-90% acetonitrile/0.1% formic acid, and analyzed for intact mass by the mass spectrometer. Adducts identified were confirmed to be within 1 Dalton of the expected mass, and the relative ratios of free:adduct protein were used to quantify the percentage of protein bound by the compound. CAF reactions were run in duplicate, with a typical variability of ±5%.
In the case of `C=CC(=O)N1CCN(c2nc(=O)n3c4c(c(-c5cc(Cl)c(F)cc5F)c(C(F)(F)F)cc24)SCC2(COC2)C3)CC1` (atropisomer, axis not shown) [Example 1397, (S)-8′-(4-acryloylpiperazin-1-yl)-11′-(5-chloro-2,4-difluorophenyl)-10′-(trifluoromethyl)-2′H,4′H,6′H-spiro[oxetane-3,3′-[1,4]thiazepino[2,3,4-ij]quinazolin]-6′-one], the “% CAF 10 uM @ 60 min” value stood at 78.2%.

Turning to `C=CC(=O)N1CC2COCC(C1)N2c1nc(=O)n2c3c(c(-c4ccc(F)cc4)c(C(F)(F)F)cc13)SC[C@@H]2COC` [Example 1383, (3S)-7-(7-acryloyl-3-oxa-7,9-diazabicyclo[3.3.1]nonan-9-yl)-10-(4-fluorophenyl)-3-(methoxymethyl)-9-(trifluoromethyl)-2,3-dihydro-5H-[1,4]thiazino[2,3,4-ij]quinazolin-5-one], the “% CAF 10 uM @ 60 min” value is 66%.

Turning to `C=CC(=O)N1[C@H](C)CN(c2nc(=O)n3c4c(c(-c5ccc(F)cc5F)c(C(F)(F)F)cc24)SC[C@@H]3CN2CCN(CC)CC2)C[C@@H]1C` (atropisomer, axis not shown) [Example 1329, (3S,10R)-7-((3S,5R)-4-acryloyl-3,5-dimethylpiperazin-1-yl)-10-(2,4-difluorophenyl)-3-((4-ethylpiperazin-1-yl)methyl)-9-(trifluoromethyl)-2,3-dihydro-5H-[1,4]thiazino[2,3,4-ij]quinazolin-5-one], the “% CAF 10 uM @ 60 min” value came to 95.4%. On the same count and under the same terms, the same measure for `[2H]C([2H])=C([2H])C(=O)N1C[C@H](C)N(c2nc(=O)n3c4c(c(-c5cc(Cl)c(F)cc5F)c(C(F)(F)F)cc24)SCC2(COC2)C3)C[C@H]1C` (atropisomer, axis not shown) [Example 1433, (S)-8′-((2S,5R)-4-(Acryloyl-d3)-2,5-dimethylpiperazin-1-yl)-11′-(5-chloro-2,4-difluorophenyl)-10′-(trifluoromethyl)-2′H,4′H,6′H-spiro[oxetane-3,3′-[1,4]thiazepino[2,3,4-ij]quinazolin]-6′-one]: 70%; for `C=CC(=O)N1[C@H](C)CN(c2nc(=O)n3c4c(c(-c5cc(Cl)c(F)cc5F)c(C(F)(F)F)cc24)SCC(COC)(COC)C3)C[C@@H]1C` [Example 1410, 8-((3S,5R)-4-acryloyl-3,5-dimethylpiperazin-1-yl)-11-(5-chloro-2,4-difluorophenyl)-3,3-bis(methoxymethyl)-10-(trifluoromethyl)-3,4-dihydro-2H,6H-[1,4]thiazepino[2,3,4-ij]quinazolin-6-one]: 95.3%; for `C=CC(=O)N1[C@H](C)CN(c2nc(=O)n3c4c(c(-c5ccc(F)cc5)c(C(F)(F)F)cc24)SC[C@H](COC)C3)C[C@@H]1C` [Example 1408, (S)-8-((3S,5R)-4-acryloyl-3,5-dimethylpiperazin-1-yl)-11-(4-fluorophenyl)-3-(methoxymethyl)-10-(trifluoromethyl)-3,4-dihydro-2H,6H-[1,4]thiazepino[2,3,4-ij]quinazolin-6-one]: 83.7%. `C=CC(=O)N1C[C@H](C)N(c2nc(=O)n3c4c(c(-c5cc(O)c(F)cc5F)c(C(F)(F)F)cc24)SCC2(COC2)C3)C[C@H]1C` [Example 1454, 8′-((2S,5R)-4-acryloyl-2,5-dimethylpiperazin-1-yl)-11′-(2,4-difluoro-5-hydroxyphenyl)-10′-(trifluoromethyl)-2′H,4′H,6′H-spiro[oxetane-3,3′-[1,4]thiazepino[2,3,4-ij]quinazolin]-6′-one]: the “% CAF 10 uM @ 60 min” value stood at 92%. Still for that read-out and setting: the same measure for `C=CC(=O)N1[C@H](C)CN(c2nc(=O)n3c4c(c(-c5cc(Cl)c(F)cc5F)c(C(F)(F)F)cc24)SC[C@@H](N2CCCC2)C3)C[C@@H]1C` (atropisomer, axis not shown) [Example 1441, (3S,11R)-8-((3S,5R)-4-acryloyl-3,5-dimethylpiperazin-1-yl)-11-(5-chloro-2,4-difluorophenyl)-3-(pyrrolidin-1-yl) 10-(trifluoromethyl)-3,4-dihydro-2H,6H-[1,4]thiazepino[2,3,4-ij]quinazolin-6-one]: 79%. The same measure, in the same setting: the same measure for `C=CC(=O)N1CCN(c2nc(=O)n3c4c(c(-c5cc(Cl)c(F)cc5F)c(C(F)(F)F)cc24)SC[C@@H]3CN2C[C@@H]3C[C@H]2CO3)CC1` (atropisomer, axis not shown) [Example 1342, (3S,10S)-3-(((1S,4S)-2-oxa-5-azabicyclo[2.2.1]heptan-5-yl)methyl)-7-(4-acryloylpiperazin-1-yl)-10-(5-chloro-2,4-difluorophenyl)-9-(trifluoromethyl)-2,3-dihydro-5H-[1,4]thiazino[2,3,4-ij]quinazolin-5-one]: 44.1%.

The assay is the same for the next values; noted with them: 10 uM compound, 60 min incubation.
As to `C=CC(=O)N1CCN(c2nc(=O)n3c4c(c(-c5cc(Cl)c(F)cc5F)c(C(F)(F)F)cc24)SC[C@@H]3COC)CC1` (atropisomer, axis not shown) [Example 1108, (3S,10S)-7-(4-acryloylpiperazin-1-yl)-10-(5-chloro-2,4-difluorophenyl)-3-(methoxymethyl)-9-(trifluoromethyl)-2,3-dihydro-5H-[1,4]thiazino[2,3,4-ij]quinazolin-5-one], the “% CAF 10 uM @ 60 min” value is 85%. Still for that read-out and setting: the same measure for `C=CC(=O)N1[C@H](C)CN(c2nc(=O)n3c4c(c(-c5cc(Cl)c(F)cc5F)c(C(F)(F)F)cc24)SC[C@@H]3COC)C[C@@H]1C` (single isomer, unassigned) [Example 1140]: 93.9%; for `C=CC(=O)N1CCN(c2nc(=O)n3c4c(c(-c5ccc(F)cc5F)c(C(F)(F)F)cc24)SCC2(COC2)C3)CC1` (atropisomer, axis not shown) [Example 1128, (S)-8′-(4-acryloylpiperazin-1-yl)-11′-(2,4-difluorophenyl)-10′-(trifluoromethyl)-2′H,4′H,6′H-spiro[oxetane-3,3′-[1,4]thiazepino [2,3,4-ij]quinazolin]-6′-one]: 65.8%. For the compound `C=CC(=O)N1[C@H](C)CN(c2nc(=O)n3c4c(c(-c5ccc(F)cc5F)c(Cl)cc24)SC[C@@H]3COC)C[C@@H]1C` [Example 1113, (3S)-7-((3S,5R)-4-acryloyl-3,5-dimethylpiperazin-1-yl)-9-chloro-10-(2,4-difluorophenyl)-3-(methoxymethyl)-2,3-dihydro-5H-[1,4]thiazino[2,3,4-ij]quinazolin-5-one], the “% CAF 10 uM @ 60 min” value is given as 96.8%.

The same assay, now with this note: 10 μM compound, after 1 hour.
Consider `C=CC(=O)N1CCN(c2nc(=O)n3c4c(c(-c5cc(Cl)c(F)cc5F)c(C(F)(F)F)cc24)SC[C@@H](OC)C3)[C@@H]2CN(S(C)(=O)=O)C[C@@H]21` [Example 1212, (3S)-8-((4aS,7aR)-4-acryloyl-6-(methylsulfonyl)octahydro-1H-pyrrolo[3,4-b]pyrazin-1-yl)-11-(5-chloro-2,4-difluorophenyl)-3-methoxy-10-(trifluoromethyl)-3,4-dihydro-2H,6H-[1,4]thiazepino[2,3,4-ij]quinazolin-6-one], for which the “CAF (% after 1 hour)” value is recorded as 50%.

Still in this assay, the particulars now being: after 60 min.
With `C=CC(=O)N1[C@H](C)CN(c2nc(=O)n3c4c(c(-c5ccc(F)cc5)c(Cl)cc24)SC[C@@H](OC)C3)C[C@@H]1C` [Example 1040, (S)-8-((3S,5R)-4-acryloyl-3,5-dimethylpiperazin-1-yl)-10-chloro-11-(4-fluorophenyl)-3-methoxy-3,4-dihydro-2H,6H-[1,4]thiazepino[2,3,4-ij]quinazolin-6-one], the “CAF (% binding after 60 min)” value is reported as 96%. On the same count and under the same terms, the same measure for `C=CC(=O)N1[C@H](C)CN(c2nc(=O)n3c4c(c(-c5cc(Cl)c(F)cc5F)c(C(F)(F)F)cc24)SC[C@@H](OCCN(C)C)C3)C[C@@H]1C` [Example 1036, (3S)-8-((3S,5R)-4-acryloyl-3,5-dimethylpiperazin-1-yl)-11-(5-chloro-2,4-difluorophenyl)-3-(2-(dimethylamino)ethoxy)-10-(trifluoromethyl)-3,4-dihydro-2H,6H-[1,4]thiazepino[2,3,4-ij]quinazolin-6-one]: 97%; for `C=CC(=O)N1CCN(c2nc(=O)n3c4c(c(-c5ccc(F)cc5F)c(C(F)(F)F)cc24)SC[C@@H](OCCOC)C3)CC1` [Example 1019, (3S)-8-(4-acryloylpiperazin-1-yl)-11-(2,4-difluorophenyl)-3-(2-methoxyethoxy)-10-(trifluoromethyl)-3,4-dihydro-2H,6H-[1,4]thiazepino[2,3,4-ij]quinazolin-6-one]: 97%.
